Data: publication PMC11400633, “Peptides inhibiting the assembly of monomeric human L‐lactate dehydrogenase into catalytically active homotetramer decrease the synthesis of lactate in cultured cells” (Protein Science : A Publication of the Protein Society, 2024)
*1 amine or outer side, *2 acyl side, *3 side chain or, on linkers, in order; H or OH if unused. [ ]: non-standard residue; d: D form. The star is where a group is joined. d(βAsp) = O=C(O)[C@@H](CC(=O)[*:2])N[*:1]; βAsp = O=C(O)[C@H](CC(=O)[*:2])N[*:1]; OBn = c1ccc(CO*)cc1

Legend:
monomeric human LDH‐A [1] = target: T1, monomeric human LDH‐A (Homo sapiens, UniProt P00338); experiment: Inhibition by peptides of LDH-A activity gained on assembly of monomeric LDH-A into tetramer; type: biochemical; conditions: 80 μM peptide incubated 5 min with 6.2 nM monomeric LDH-A, 10 mM Tris-HCl + 10 mM BisTris pH 7.5, started with 125 μM β-NADH and 500 μM pyruvate, 25°C, A340, vs control with 1% DMSO, mean ± SD, n = 3
T1 construct: made in house; host or cells: E. coli BL21(DE3), pET9a (NdeI/BamHI)
Experimental: In particular, all the peptides were tested at 80 μM (final concentration), and the LDH activity detected in their presence was compared with the catalytic action observed with control samples devoid of any peptide. First, we decided to assay the octameric peptide TH1, the primary structure of which ([…]) is identical to the LDH‐A region spanning residues 295–302. […] Indeed, the catalytic action exerted by 6 nM tetrameric LDH‐A (in 10 mM Tris–HCl, pH 7.5, containing 150 mM NaCl) was determined as equal to 433 ± 11 and 452 ± 19 nM/s in the absence and in the presence of 80 μM TH1 octapeptide, respectively. Overall, this insensitivity along with the significant effect elicited by TH1 on monomeric LDH‐A indicate that the octapeptide inhibits the assembly of LDH‐A monomers into the corresponding, catalytically active, tetramer. To dissect the inhibition triggered by TH1 on monomeric LDH‐A, we decided to evaluate: (i) whether or not the two halves of the octapeptide, that is, GQNG and ISDL, are equally competent in inhibiting LDH‐A; (ii) the action of linear and cyclic peptides, containing or not D amino acids; and (iii) the effect, if any, triggered by the presence of protecting groups in the peptides to be assayed. It should be noted that to allow the cyclization of tetrapeptide GQNG while maintaining a terminal carboxylic group, the sequence was modified to GQND, while for the cyclization of ISDL while maintaining a terminal amino group, the sequence was modified into KSDL (Table 1).
FIGURE 8 Inhibition exerted by linear and cyclic peptides on LDH‐A activity detected in vitro. […] The gray bars (in “a” and “d”) represent the activity observed in the presence of the same volume of DMSO (1%, v/v) carried to the assay mixtures by the peptides to be tested. (a–c) The effect, if any, of tetrameric peptides featuring the GQND primary structure (see also Table 1) on LDH‐A activity is shown. The inhibition exerted by the octameric peptide TH1 is also reported in “a.” The enzyme activity observed in the presence of linear or cyclic peptides is shown in “b” and “c”, respectively. (d) Extent of LDH‐A activity detected in the presence of linear or cyclic tetrapeptides featuring the KSDL primary structure. Error bars represent SD (n = 3). The experimental observations were compared by Student's t‐test. The ***, **, and * symbols denote p values lower than 0.001, 0.01, and […], respectively. (e) Simulation of the association between the TH2 peptide and monomeric LDH‐A. Predicted interactions between the cyclopeptide c[GQN‐isoD] (TH2) and the N‐terminal sequence Y^9[…]^19, as simulated by molecular dynamics in a box of explicit TIP3P water molecules; gray and red dotted lines represent hydrogen bonds and salt bridges, respectively.
All the assays were performed at 25°C using a Cary 300 Bio spectrophotometer.

MCF7 cells = experiment: Colorimetric assay of lactate secretion by MCF7 cells (expressing LDH-A); type: cell-based, human
Description: Having identified peptides able to interfere with the assembly of monomeric LDH‐A into catalytically active tetramer, we considered of interest to test the action of peptides against LDH‐A expressed in human cell lines. In particular, we analyzed the lactate secreted by cultured human cells exposed or not to the peptides better performing as inhibitors of LDH‐A in vitro, that is, TH1, TH2, and TH16. Moreover, we used two different cell lines exclusively expressing LDH‐A or LDH‐B, that is, MCF7 and BxPC3, respectively. In MCF7 cells, the [mRNALDH‐A]/[mRNALDH‐B] ratio is indeed equal to ca. 150 (Figure 9a), whereas in BxPC3 cells the messenger coding for LDH‐A was not detected (Figure 9a). Therefore, by comparing the decrease, if any, of the lactate concentration secreted by these two cell lines the selectivity of peptides acting against LDH‐A or LDH‐B can be conveniently estimated. When the MCF7 cell line is considered, the linear TH16 and the cyclic TH2 tetrapeptide performed equally, being both responsible for a concentration of secreted lactate 20% lower than that detected in their absence (Figure 9b). […] Accordingly, it seems likely that lipofectamine is effective in assisting the penetration of the TH16 and TH2 peptides into cells, with this action of lipofectamine being much weaker when dealing with a larger molecule, that is, an octapeptide.
To evaluate the competence of peptides in inhibiting the action of LDH‐A in cultured cells, two human cell cultures were used: MCF7 and BxPC3, isolated from breast and pancreatic adenocarcinoma, respectively. Cultures were grown in DMEM (MCF7) or RPMI medium (BxPC3), supplemented with 100 U/ml penicillin/streptomycin, 2 mM glutamine and 10% (v/v) FBS. All the components of the media used for cell culture were obtained from Merck‐Millipore.
The competence of peptides in inhibiting LDH in cultured cells was tested by assessing the concentration of lactate released by MCF7 and BxPC3 cell cultures. To this aim, cells were seeded in duplicate in 24‐wells plates (2 × 10^5/well) and let to adhere overnight; the culture medium was then replaced by Krebs‐Ringer buffer (300 μl/well). Stock solutions of peptides (8 mM in DMSO) were diluted in Krebs‐Ringer buffer to a final concentration of 640 μM and mixed with an equal volume of 4% (v/v, in Krebs‐Ringer buffer) Lipofectamine 2000 (Invitrogen). The final solution was thoroughly mixed, kept for 25 min at room temperature, and finally 100 μl were added to each plate well, obtaining a final peptide concentration equal to 80 μM. The concentration of lactate released in the Krebs–Ringer buffer was determined after 4 h of incubation at 37°C, using the colorimetric assay previously reported (Rossi et al., [2023]). Each experiment was performed in triplicate and included control samples consisting of untreated cell cultures exposed to the same final concentration of DMSO (1%, v/v) and Lipofectamine (0.5%, v/v) to which were exposed the samples treated with peptides.

BxPC3 cells = experiment: Colorimetric assay of lactate secretion by BxPC3 cells (expressing LDH-B); type: cell-based, human; conditions: BxPC3, 80 μM peptide with Lipofectamine 2000 (0.5% v/v), 1% DMSO, Krebs-Ringer buffer, 4 h, 37°C, n = 3
Description: Having identified peptides able to interfere with the assembly of monomeric LDH‐A into catalytically active tetramer, we considered of interest to test the action of peptides against LDH‐A expressed in human cell lines. In particular, we analyzed the lactate secreted by cultured human cells exposed or not to the peptides better performing as inhibitors of LDH‐A in vitro, that is, TH1, TH2, and TH16. Moreover, we used two different cell lines exclusively expressing LDH‐A or LDH‐B, that is, MCF7 and BxPC3, respectively. In MCF7 cells, the [mRNALDH‐A]/[mRNALDH‐B] ratio is indeed equal to ca. 150 (Figure 9a), whereas in BxPC3 cells the messenger coding for LDH‐A was not detected (Figure 9a). Therefore, by comparing the decrease, if any, of the lactate concentration secreted by these two cell lines the selectivity of peptides acting against LDH‐A or LDH‐B can be conveniently estimated. When the MCF7 cell line is considered, the linear TH16 and the cyclic TH2 tetrapeptide performed equally, being both responsible for a concentration of secreted lactate 20% lower than that detected in their absence (Figure 9b). […] It should indeed be noted that the assays with cells were performed in the presence of lipofectamine (see Section 5). […] Accordingly, it seems likely that lipofectamine is effective in assisting the penetration of the TH16 and TH2 peptides into cells, with this action of lipofectamine being much weaker when dealing with a larger molecule, that is, an octapeptide.
To evaluate the competence of peptides in inhibiting the action of LDH‐A in cultured cells, two human cell cultures were used: MCF7 and BxPC3, isolated from breast and pancreatic adenocarcinoma, respectively. […]
The competence of peptides in inhibiting LDH in cultured cells was tested by assessing the concentration of lactate released by MCF7 and BxPC3 cell cultures. […] The concentration of lactate released in the Krebs–Ringer buffer was determined after 4 h of incubation at 37°C, using the colorimetric assay previously reported (Rossi et al., [2023]). […]

tetrameric LDH‐A = target: T2, tetrameric LDH‐A (Homo sapiens, UniProt P00338); experiment: Steady-state kinetics of pyruvate reduction by tetrameric LDH-A; type: biochemical; conditions: variable β-NADH, 500 μM pyruvate, 1.9 nM tetramer, pH 7.5, 25°C
T2 construct: made in house; host or cells: E. coli BL21(DE3), pET9a (NdeI/BamHI)
Experimental: (§1) To further characterize the catalytic action of monomeric LDH-A exposed to β-NADH and pyruvate, and therefore assembled into tetramer (cf. […] In addition, the kinetics of pyruvate reduction catalyzed by tetrameric LDH-A was assayed under the same conditions used for the monomeric enzyme. Structurally and functionally speaking, the availability of monomeric LDH-A does indeed provide an unprecedented and quite interesting tool to perform quantitative tests of the assembly of monomers into the corresponding catalytically active tetramer. […] In addition to this, the enzyme kinetic parameters were also determined testing reaction velocity as a function of β-NADH concentration, in the presence of 500 μM pyruvate. […] The continuous lines represent the best fit of the Michaelis-Menten equation to the experimental observations. […] The continuous lines represent the best fit of the Michaelis-Menten equation to the experimental observations. (c) Kinetic parameters determined by performing activity assays using monomeric or tetrameric LDH-A, at the indicated final concentrations. Under conditions of variable pyruvate concentration, β-NADH was always used at 125 μM. When reaction mixtures contained variable concentrations of the redox cofactor, pyruvate was invariably added at 500 μM. All the assays were performed at pH 7.5 (Tris-BisTris, 10 mM each.

monomeric human LDH‐A [2] = target: T1, monomeric human LDH‐A; experiment: Steady-state kinetics of pyruvate reduction by monomeric LDH-A (assembled monomers); type: biochemical; conditions: variable β-NADH, 500 μM pyruvate, 7.6 nM monomer, pH 7.5, 25°C
Experimental: as §1

| Substance | Inhibition (%) of LDH‐A activity (monomeric human LDH‐A [1]) [%] | also measured |
| --- | --- | --- |
| c[Gly‐Gln‐Asn‐D‐isoAsp(OBn)] (head to tail) [TH11] | 8 ± 4 |  |
| c[Gly‐Gln‐Asn‐isoAsp(OBn)] (head to tail) [TH10] | 6 ± 3 |  |
| c[isoLys‐Ser‐Asp‐D‐Leu] (sidechain bridge or staple) [TH5] | 7 ± 3 |  |
| c[isoLys‐Ser‐Asp‐Leu] (sidechain bridge or staple) [TH4] | 16 ± 3 |  |
| cyclo(GQND(OBn)) (SMILES NC(=O)CC[C@@H]1NC(=O)CNC(=O)[C@H](CC(=O)OCc2ccccc2)NC(=O)[C@H](CC(N)=O)NC1=O) [TH15] | 9 ± 2 |  |
| cyclo(GQN[d(βAsp)]) (SMILES NC(=O)CC[C@@H]1NC(=O)CNC(=O)C[C@H](C(=O)O)NC(=O)[C@H](CC(N)=O)NC1=O) [TH3] | 26 ± 1 |  |
| cyclo(GQN[βAsp]) (SMILES NC(=O)CC[C@@H]1NC(=O)CNC(=O)C[C@@H](C(=O)O)NC(=O)[C@H](CC(N)=O)NC1=O) [TH2] | 31 ± 3 | decrease of the concentration of secreted lactate (MCF7 cells; MCF7, 80 μM peptide with Lipofectamine 2000 (0.5% v/v), 1% DMSO, Krebs-Ringer buffer, 4 h, 37°C, colorimetric, n = 3, vs cells without peptide): 20%; effect on lactate production in the absence of lipofectamine (MCF7 cells; MCF7, peptide without lipofectamine): negligible and not significant effects; effect on lactate secretion (BxPC3 cells): no significant differences |
| β‐NADH |  | K m for β‐NADH, tetrameric LDH‐A (tetrameric LDH‐A): 9.0 ± 0.6 µM; K m for β‐NADH, monomeric LDH‐A (assembled monomers) (monomeric human LDH‐A [2]): 7.7 ± 1.1 µM |
